Results reported in patent publication US11813276B2, “Compositions and methods for the treatment of AUD” (University of Southern California, priority 2020, dated 2023).

What was measured:
[1] = test system: mice; test: Earlier ethanol drinking studies with avermectins given alone; assay type: in vivo; conditions: for time from administration to time of significant reduction of ethanol intake: avermectin alone
Description: The altered function or expression of central nervous system (CNS) genes has long been considered a significant factor in contributing to the behavioral phenotype of alcoholism. By profiling gene expression in rodent strains undergoing multiple drinking paradigms, researchers have begun to identify potential candidate genes and pathways that may impart novel mechanistic information that drives the neurobiology of alcoholism.

[2] = test system: mice; conditions: cited from earlier work

In the case of `CC[C@H](C)[C@H]1O[C@]2(CC[C@@H]1C)C[C@@H]1C[C@@H](C/C=C(\C)[C@@H](O[C@H]3C[C@H](OC)[C@@H](O[C@H]4C[C@H](OC)[C@@H](O)[C@H](C)O4)[C@H](C)O3)[C@@H](C)/C=C/C=C3\CO[C@@H]4[C@H](O)C(C)=C[C@@H](C(=O)O1)[C@]34O)O2` [IVM, ivermectin], the “time from administration to time of significant reduction of ethanol intake” value [1] is reported as 8 h, the “effect of chronic administration on the reduction of ethanol intake (tolerance)” value ([1]; chronic administration) is reported as “did not significantly alter the reduction of ethanol intake” and the “toxicity or addictive liabilities” value ([1]; chronic administration, ethanol drinking studies) is reported as “nor was any measured or observed obvious increase in toxicity or addictive liabilities”. For the same compound, the voluntary ethanol intake ([2]; IVM alone, doses between 2.5 mg/kg and 10 mg/kg, mice models (Yardlet et al., 2012)) was “significant reduction in the voluntary ethanol intake” and the ethanol intake ([2]; male and female mice, avermectin alone) was “significantly reduced ethanol intake”.
With `CO/N=C1\C[C@]2(C[C@@H]3C[C@@H](C/C=C(\C)C[C@@H](C)/C=C/C=C4\CO[C@@H]5[C@H](O)C(C)=C[C@@H](C(=O)O3)[C@]45O)O2)O[C@H](/C(C)=C/C(C)C)[C@H]1C` [MOX, moxidectin] the “time from administration to time of significant reduction of ethanol intake” value [1] was 4 h and the “toxicity or addictive liabilities” value ([1]; mouse, in vivo) was “nor was any measured or observed obvious increase in toxicity or addictive liabilities”.
